Results published in ChEMBL document CHEMBL3352089 (J Med Chem, 2014).

What was measured:
[1] = Cytotoxicity against human HepG2 cells assessed as cell viability at 1 uM after 4 hrs by Cell-Titer Glo assay; assay type: cell-based; details: read-out: Activity
[2] = Cytotoxicity against human HepG2 cells assessed as cell viability at 10 uM after 4 hrs by Cell-Titer Glo assay; assay type: cell-based; details: read-out: Activity
[3] = Cytotoxicity against human HepG2 cells assessed as cell viability at 1 uM after 24 hrs by Cell-Titer Glo assay; assay type: cell-based; details: read-out: Activity
[4] = Cytotoxicity against human HepG2 cells assessed as cell viability at 10 uM after 24 hrs by Cell-Titer Glo assay; assay type: cell-based; details: read-out: Activity
[5] = test system: T1, Activin receptor type-1 (Homo sapiens), Q04771 [Q207D]
T1 sequence (whole entry): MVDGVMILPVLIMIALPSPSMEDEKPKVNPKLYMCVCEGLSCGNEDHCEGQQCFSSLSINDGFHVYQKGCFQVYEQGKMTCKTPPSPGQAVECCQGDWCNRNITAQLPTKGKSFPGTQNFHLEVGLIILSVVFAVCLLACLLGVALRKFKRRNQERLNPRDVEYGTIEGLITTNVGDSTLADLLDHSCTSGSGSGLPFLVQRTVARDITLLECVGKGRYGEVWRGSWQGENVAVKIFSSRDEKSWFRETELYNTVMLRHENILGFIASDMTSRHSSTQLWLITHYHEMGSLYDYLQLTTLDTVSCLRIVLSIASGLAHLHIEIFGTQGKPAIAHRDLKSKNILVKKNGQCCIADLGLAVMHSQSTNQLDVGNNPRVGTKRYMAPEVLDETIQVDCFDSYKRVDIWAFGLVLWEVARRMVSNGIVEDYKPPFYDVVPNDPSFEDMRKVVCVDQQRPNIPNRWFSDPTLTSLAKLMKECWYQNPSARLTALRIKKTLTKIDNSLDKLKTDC

[6] = biological target: T2, TGF-beta receptor type-1 (Homo sapiens) (UniProt P36897)
T2 sequence (whole entry): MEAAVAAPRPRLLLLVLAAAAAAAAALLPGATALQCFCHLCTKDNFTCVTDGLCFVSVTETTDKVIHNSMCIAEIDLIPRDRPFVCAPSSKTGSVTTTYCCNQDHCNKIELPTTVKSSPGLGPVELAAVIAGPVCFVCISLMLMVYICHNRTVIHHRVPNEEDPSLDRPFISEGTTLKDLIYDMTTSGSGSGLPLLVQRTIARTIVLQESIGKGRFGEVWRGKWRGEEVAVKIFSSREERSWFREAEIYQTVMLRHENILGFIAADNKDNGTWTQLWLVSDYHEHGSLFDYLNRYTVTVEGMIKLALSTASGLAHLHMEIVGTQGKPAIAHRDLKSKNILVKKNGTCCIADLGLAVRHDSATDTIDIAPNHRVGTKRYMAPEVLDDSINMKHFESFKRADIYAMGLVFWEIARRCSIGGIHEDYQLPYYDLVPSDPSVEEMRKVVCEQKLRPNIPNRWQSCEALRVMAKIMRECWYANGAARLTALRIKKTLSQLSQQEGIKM
Description: Inhibition of purified ALK5 kinase (unknown origin) by RT-PCR analysis

[7] = Cytotoxicity against human HepG2 cells assessed as cell viability at 100 uM after 4 hrs by Cell-Titer Glo assay; assay type: cell-based; details: read-out: Activity
[8] = Cytotoxicity against human HepG2 cells assessed as cell viability at 100 uM after 24 hrs by Cell-Titer Glo assay; assay type: cell-based; details: read-out: Activity

Compound	viability at 4 h, 1 µM [1]	viability at 4 h, 10 µM [2]	viability at 24 h, 1 µM [3]	viability at 24 h, 10 µM [4]	ΔTm [5]	ΔTm [6]	viability at 4 h, 100 µM [7]	viability at 24 h, 100 µM [8]
COc1cc(-c2cncc(-c3ccc(N4CCNCC4)cc3)c2)cc(OC)c1OC	> 75%	> 75%	> 75%	> 75%	14.1 °C	10.4 °C		
COc1cc(-c2cc(-c3ccc(N4CCNCC4)cc3)cnc2N)cc(OC)c1OC	> 75%	> 75%	> 75%	> 75%	15.1 °C	13.9 °C	> 75%	
COc1cc(-c2cc(-c3ccc(N4CCNCC4)cc3)cnc2C)cc(OC)c1OC	> 75%	> 75%	> 75%	> 75%	13.7 °C	9.7 °C	> 75%	> 75%
